Test [1] deals with cUMP-bound PycTIR (gel-filtration data). Description: SEC; gel filtration of cUMP-bound PycTIR (Supplementary Fig. 10).
A further test has as its target T1, EaPycC (Elizabethkingia anophelis, UniProt A0AAT8XUA8).
T1 construct: full-length, thioredoxin-His tag cut by TEV, extra N-terminal Gly, E. coli BL21(DE3); homodimer
T1 sequence (A0AAT8XUA8 2-342): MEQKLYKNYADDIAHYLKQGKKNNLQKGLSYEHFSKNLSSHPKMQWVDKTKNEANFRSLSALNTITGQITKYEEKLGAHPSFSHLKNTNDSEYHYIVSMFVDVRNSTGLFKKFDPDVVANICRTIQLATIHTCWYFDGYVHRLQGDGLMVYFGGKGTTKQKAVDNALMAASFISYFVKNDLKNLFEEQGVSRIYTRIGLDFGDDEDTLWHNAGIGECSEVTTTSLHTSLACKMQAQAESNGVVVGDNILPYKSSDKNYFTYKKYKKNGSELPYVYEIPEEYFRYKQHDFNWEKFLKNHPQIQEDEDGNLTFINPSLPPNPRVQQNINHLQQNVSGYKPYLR
The test can be described thus: LC-MS/MS. Type of test: biochemical. The conditions noted are these: 0.5 mM CTP, 1 μM enzyme, 25 °C overnight.

In a further test the target is T2, PsPycTIRCNBD (Pseudovibrio sp. W64, UniProt A0ACD6BAZ5).
T2 construct: dimer with cUMP
T2 sequence (A0ACD6BAZ5 entry or part of it): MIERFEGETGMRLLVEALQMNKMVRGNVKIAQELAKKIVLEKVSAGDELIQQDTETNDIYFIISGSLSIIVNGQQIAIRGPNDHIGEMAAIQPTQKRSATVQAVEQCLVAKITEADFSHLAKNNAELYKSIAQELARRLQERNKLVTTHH
The test can be described thus: isothermal titration calorimetry. Type of test: binding. An excerpt: isothermal titration calorimetry on PsPycTIRCNBD
(In general: Isothermal titration calorimetry measures the heat released or taken up as one component is titrated into another.)

The next test addresses NpPycTIRCNBD (Novosphingobium pentaromativorans, UniProt A0AAT8XUA9). Description: isothermal titration calorimetry. The class given is binding. The text has this: isothermal titration calorimetry on NpPycTIRCNBD
In test [2] the target is SmPycTIRCNBD (Stenotrophomonas maltophilia). The test can be described thus: isothermal titration calorimetry. Type of test: binding. The text has this:
isothermal titration calorimetry on SmPycTIRCNBD

Another test concerns the target T3, AnPycC (Anabaena sp. CA = ATCC 33047, UniProt A0ACD6BAV8).
T3 construct: full-length, thioredoxin-His tag cut by TEV, extra N-terminal Gly, E. coli BL21(DE3); monomer in solution, dimer in crystal
Description: LC-MS/MS. Type of test: biochemical. The settings on record: 0.5 mM UTP, 1 μM enzyme, pH 9.0, 25 °C overnight.

The target of the next test is T4, AhPycTIRCNBD (Acinetobacter haemolyticus, UniProt N9FD06).
T4 construct: gene F927_00926
T4 sequence (N9FD06 entry or part of it): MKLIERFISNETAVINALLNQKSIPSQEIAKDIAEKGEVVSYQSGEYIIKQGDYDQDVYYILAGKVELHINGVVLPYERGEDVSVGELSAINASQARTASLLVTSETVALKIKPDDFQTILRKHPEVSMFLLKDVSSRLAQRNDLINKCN
Description: isothermal titration calorimetry. The class given is binding. An excerpt: isothermal titration calorimetry on AhPycTIRCNBD

The text below walks through data of paper PMC11224242, “Structural and functional characterization of cyclic pyrimidine-regulated anti-phage system” (Nature Communications, 2024).

Several values for one entry are separate records, joined by “and”; a condition that tells them apart may be missing. Identical values can stand only once.

As a reminder, the stoichiometry N is the number of molecules, sites or subunits per partner or assembly. Usually Kd stands for the constant that tells how readily two partners part at equilibrium. A high value points to lower affinity.

NpPycTIRCNBD, sequence (A0AAT8XUA9 entry or part of it): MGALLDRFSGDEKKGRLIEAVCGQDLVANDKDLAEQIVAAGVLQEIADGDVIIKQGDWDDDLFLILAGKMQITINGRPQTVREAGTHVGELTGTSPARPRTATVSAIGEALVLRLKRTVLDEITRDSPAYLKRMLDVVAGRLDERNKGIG
T3 sequence (A0ACD6BAV8 1-280): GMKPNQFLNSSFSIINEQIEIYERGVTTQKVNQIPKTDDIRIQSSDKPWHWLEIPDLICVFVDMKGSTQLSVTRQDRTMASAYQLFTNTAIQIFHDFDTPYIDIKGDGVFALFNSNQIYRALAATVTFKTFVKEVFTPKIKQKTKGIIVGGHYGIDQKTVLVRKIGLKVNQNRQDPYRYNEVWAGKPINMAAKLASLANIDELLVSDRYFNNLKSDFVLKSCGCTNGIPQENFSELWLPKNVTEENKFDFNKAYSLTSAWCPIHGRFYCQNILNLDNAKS

For the molecule cUMP-bound PycTIR (gel-filtration data), the stoichiometry N in test [1] is 2 and 4.

`Nc1ccn([C@@H]2O[C@@H]3COP(=O)(O)O[C@H]3[C@H]2O)c(=O)n1` [cCMP]: at EaPycC, the LC-MS/MS result is listed as “an elution peak corresponding to the cCMP product was detected”.

For `O=c1ccn([C@@H]2O[C@@H]3COP(=O)(O)O[C@H]3[C@H]2O)c(=O)[nH]1` [cUMP], the dissociation constant (Kd) at PsPycTIRCNBD worked out at 1 nM; on NpPycTIRCNBD, 1 nM; in test [2] it was 270 nM; at AhPycTIRCNBD, 820 nM. For the same molecule, the LC-MS/MS entry on AnPycC is listed as “The production of cUMP by purified AnPycC proteins was confirmed by LC-MS/MS”.
